{"source": "patent US20250179108A1", "about": "“UTILITY OF NEMATODE SMALL MOLECULES” (California Institute of Technology, priority 2011, published 2025)", "key": {"P. redivivus females [1]": {"system": "P. redivivus females", "assay": "Attraction assay, Panagrellus redivivus females", "type": "in vivo", "method": "(§1) FIG. 1A depicts, in accordance with an embodiment herein, a chemoattraction assay to reveal a gender specific mate finding cue in Panagrellus redivivus. A transparent template is attached below a 5-cm plate with a 16-mm bacterial lawn to delineate two scoring regions into which 0.6μL of the experimental sample and control sample are placed. Ten P. redivivus males are placed at points equidistant from the two scoring regions and the plate is recorded for 20 minutes (at a rate of 1 frame per second).\n(§2) FIG. 1B depict attraction measured using software that computes the ratio of worm-pixels to total pixels for each scoring region.\n(§3) FIG. 1C that the output is a plot of worm occupancy ratio vs. time for both scoring regions. The shown graph indicates strong attraction of P. redivivus males to the experimental sample. FIG. 2A depicts, in accordance with an embodiment herein, purification of the female sex pheromone in Panagrellus redivivus.\nOP50 E. coli is grown on a standard 5 cm agar plate (made with standard Nematode Growth Medium). The bacterial lawn is 16 mm in diameter and is grown overnight at 20C before being used in trials. Two 4-mm spots ([…]) were placed on opposite sides of the bacterial lawn (using a transparent template to guide spot placement) and several minutes elapsed for the liquid to settle in before placing nematodes down on the assay. Recording began immediately upon worm placement. […] of the control was placed on one side of the lawn and […] of the experimental cue was placed on the other side of the lawn, changing the location of the cue throughout trials, between left/right and top/bottom to avoid bias. Nematodes were isolated by gender at the L4 stage the day before being used in trials as developed adults. Five worms were each placed at two points equidistant from the foci of the scoring region (ten total). Trials were recorded for 20 minutes and frames were collected for analysis at 1 frame per second. Results were averaged from at least three different trials. For every nematode species in this study, the inventors tested different total number of worms (using water in both scoring regions) to determine the minimum number of worms necessary for consistent unbiased results over a 20-minute trial. […]\n(§4) A video camera attached to the microscope produces a digital video stream, which is then analyzed. The ratio of time the average worm spends in each region of interest is calculated for every trial. […] Thus, worm pixels were counted instead of whole worms, allowing the inventors to take into account fractions of a worm in the region of interest. It also eliminated the need for a shape-based worm identification algorithm, and allowed each frame to be analyzed independently. […]"}, "[2]": {"system": "males from many of the nematode species tested", "assay": "Attraction assay, males of different nematode species", "type": "in vivo", "conditions": "1 nM, 1 μM and 1 mM tested", "method": "FIG. 5A depicts, in accordance with an embodiment herein, that ascarosides mediate behavior of nematode species from diverse generas. Species that were amenable to test in the attraction assay (sufficient movement, unbiased direction, reproducible controls) were scored for attraction or repulsion toward three concentrations (1 mM, 1 μM, and 1 nM: from left to right) of 13 different ascarosides. Pvalues were determined using the Student's t-test with a P<0.05. The score “0” represents any findings where P>0.05.\n(§5) To investigate the biological function of the ascarosides identified in the MS screen, the inventors used a bioassay (FIGS. 1A-1C) to measure attraction of different nematode species to a wide range of ascaroside concentrations (1 nM, 1 μM, and 1 mM). For these bioassays, nematode species had to fulfill several requirements, such as sufficient movement on bacterial lawns, low tendency to aggregate, easy to grow, and generally reproducible locomotive behavior. This study was limited to a survey of males from different species, because males tended to move much more evenly across our bioassay lawn than females and hermaphrodites (with the exception of P. redivivus females, which move well and were therefore in this study.)\nOP50 E. coli is grown on a standard 5 cm agar plate (made with standard Nematode Growth Medium). The bacterial lawn is 16 mm in diameter and is grown overnight at 20C before being used in trials. Two 4-mm spots ([…]) were placed on opposite sides of the bacterial lawn (using a transparent template to guide spot placement) and several minutes elapsed for the liquid to settle in before placing nematodes down on the assay. Recording began immediately upon worm placement. […] of the control was placed on one side of the lawn and […] of the experimental cue was placed on the other side of the lawn, changing the location of the cue throughout trials, between left/right and top/bottom to avoid bias. Nematodes were isolated by gender at the L4 stage the day before being used in trials as developed adults. Five worms were each placed at two points equidistant from the foci of the scoring region (ten total). Trials were recorded for 20 minutes and frames were collected for analysis at 1 frame per second. Results were averaged from at least three different trials. For every nematode species in this study, the inventors tested different total number of worms (using water in both scoring regions) to determine the minimum number of worms necessary for consistent unbiased results over a 20-minute trial. The total number of worms used in the multiple species assays depending on that species' optimal parameters. 10 worms were for P. redivivus males and females, 20 worms were used for C. elegans males, O. dolichuridae males, and C. sp7 males and 14 worms were used forS. glaseri males.\nA video camera attached to the microscope produces a digital video stream, which is then analyzed. The ratio of time the average worm spends in each region of interest is calculated for every trial. For ease of implementation, it was assumed that all worms in a single experiment are roughly the same size. Thus, worm pixels were counted instead of whole worms, allowing the inventors to take into account fractions of a worm in the region of interest. It also eliminated the need for a shape-based worm identification algorithm, and allowed each frame to be analyzed independently. The inventors applied a band-pass filter to each frame to eliminate the effect of uneven lighting and also accentuate the worms against the background. The worm was then identified after thresholding the filtered image. Throughout each experiment, the inventors know the locations and sizes of the regions of interest. Through the filtering described above, the inventors know which pixels are occupied by worms and which ones are not. They are then able to calculate the ratio of worm-pixels to all pixels inside the region of interest to produce the worm- occupancy ratio. […]"}, "asthmatic mice": {"system": "asthmatic mice", "assay": "Ovalbumin induction of asthma, allergic airway inflammation in mice", "type": "in vivo", "conditions": "for eosinophils / mucus hyper-production / cellular infiltration into the lungs: asthmatic mice; for cellular infiltration into the lungs: lung histology", "method": "FIG. 7A depicts, in accordance with an embodiment herein, sensitization with OVA+ Control/Alum (N=3) and sensitization with OVA+NES/Alum (N=3), in Nippostrongylus brasiliensis. The experimental model is ovalbumin inducation of asthma. […] No worm, living or dead, is introduced into the asthma model. Furthermore, proteins were eliminated by denaturing at 100C for 25 minutes, and filtering through a 10 kDa filter. FIGS. 7B-7D depict the histology of mice treated with NES.\nThe effects of ascarosides are examined for an allergic airway inflammation."}, "P. redivivus males": {"system": "P. redivivus males", "assay": "Attraction assay, Panagrellus redivivus males", "type": "in vivo", "method": "as §1, §2, §3\nOP50 E. coli is grown on a standard 5 cm agar plate (made with standard Nematode Growth Medium). The bacterial lawn is 16 mm in diameter and is grown overnight at 20C before being used in trials. Two 4-mm spots ([…]) were placed on opposite sides of the bacterial lawn (using a transparent template to guide spot placement) and several minutes elapsed for the liquid to settle in before placing nematodes down on the assay. Recording began immediately upon worm placement. […] Trials were recorded for 20 minutes and frames were collected for analysis at 1 frame per second. […]\nas §4"}, "C. elegans": {"system": "C. elegans", "conditions": "cited from earlier work"}, "P. redivivus females [3]": {"system": "P. redivivus females", "assay": "Repulsion scoring by behavioral response (immediate exit of the conditioned region)", "type": "in vivo, Panagrellus redivivus", "conditions": "high concentrations", "source_text": "The inventors thus used a separate method for scoring repulsion that focused on behavioral response rather than time spent in each region."}, "C. elegans males [4]": {"system": "C. elegans males", "conditions": "reduced attraction at high concentrations; cited from earlier work"}, "C. elegans males [5]": {"system": "C. elegans males", "assay": "Attraction assay, C. elegans males", "type": "in vivo, Caenorhabditis elegans", "conditions": "tested at 1 nM, 1 μM and 1 mM", "method": "as §5\nOP50 E. coli is grown on a standard 5 cm agar plate (made with standard Nematode Growth Medium). […] Trials were recorded for 20 minutes and frames were collected for analysis at 1 frame per second. […]\nas §4"}, "[6]": {"conditions": "any of the tested concentrations"}}, "note": "Entries after “also recorded” stand apart in the source; their conditions may differ.", "data": [{"smiles": "CC1O[C@@H](O[C@H](C)CCCCC(=O)O)C(O)C[C@H]1O", "note": "(single isomer, unassigned; (-)) [ascr #1, (−) 6-(3,5-dihydroxy-6-methyltetrahydropyran-2-yloxy) heptanoic acid]", "values": [{"measurement": "female attraction", "setting": "P. redivivus females [1]; [6]", "value": "not attracted"}, {"measurement": "female attraction", "setting": "P. redivivus females [1]; between 100 and 106 fmol, FIG. 2E", "value": "not attracted"}, {"measurement": "female repulsion, semi-automated scoring method", "setting": "P. redivivus females [1]; time spent in each region", "value": "not significantly repelled"}, {"measurement": "attraction of males", "setting": "[2]", "value": "attracted"}, {"measurement": "eosinophils", "setting": "asthmatic mice", "value": "reduction"}, {"measurement": "mucus hyper-production", "setting": "asthmatic mice", "value": "decreased"}, {"measurement": "cellular infiltration into the lungs", "setting": "asthmatic mice", "value": "decreased"}, {"measurement": "eosinophils", "setting": "asthmatic mice; listed as Ascr #1", "value": "some effect"}, {"measurement": "male attraction (Attraction Bioassay)", "setting": "P. redivivus males; P. redivivus males", "value": "strongly attracted; also recorded: full male attraction"}, {"measurement": "induction of diapause (dauer)", "setting": "C. elegans", "value": "weakly induces diapause"}, {"measurement": "female repulsion, immediate exit of the conditioned region before entering a full worm's length", "setting": "P. redivivus females [3]", "value": "significantly repelled"}]}, {"smiles": "CC(=O)CCCC(C)OC1OC(C)C(O)CC1O", "note": "(centres unmarked) [ascr #2]", "values": [{"measurement": "male response to hermaphroditic sex pheromones", "setting": "C. elegans males [4]", "value": "biphasic response"}]}, {"smiles": "CC1O[C@@H](O[C@H](C)CCCC/C=C/C(=O)O)[C@@H](O)C[C@H]1O", "note": "(some centres unmarked) [ascr #3]", "values": [{"measurement": "attraction of males", "setting": "[2]", "value": "attracted"}, {"measurement": "eosinophils", "setting": "asthmatic mice", "value": "reduction; also recorded: some effect"}, {"measurement": "mucus hyper-production", "setting": "asthmatic mice", "value": "decreased"}, {"measurement": "cellular infiltration into the lungs", "setting": "asthmatic mice", "value": "decreased"}, {"measurement": "male response to hermaphroditic sex pheromones", "setting": "C. elegans males [4]", "value": "biphasic response"}]}, {"smiles": "C[C@H](CC/C=C/C(=O)O)O[C@@H]1O[C@@H](C)[C@H](O)C[C@H]1O", "note": "[ascr #7]", "values": [{"measurement": "attraction of males", "setting": "[2]", "value": "attracted"}, {"measurement": "eosinophils", "setting": "asthmatic mice", "value": "reduction; also recorded: markedly reduced"}, {"measurement": "mucus hyper-production", "setting": "asthmatic mice", "value": "decreased"}, {"measurement": "cellular infiltration into the lungs", "setting": "asthmatic mice", "value": "decreased"}, {"measurement": "effect on allergic airway inflammation", "setting": "asthmatic mice; synthesized ascarosides tested individually, FIG. 10B", "value": "inhibitory effect"}, {"measurement": "male attraction", "setting": "P. redivivus males; 1 mM and 1 μM", "value": "attracted"}, {"measurement": "male response (attraction)", "setting": "C. elegans males [5]", "value": "only respond to 1 mM"}]}, {"smiles": "C[C@H](CC/C=C/C(=O)Nc1ccc(C(=O)O)cc1)O[C@@H]1O[C@@H](C)[C@H](O)C[C@H]1O", "note": "[ascr #8]", "values": [{"measurement": "attraction of males", "setting": "[2]", "value": "attracted"}]}, {"smiles": "CC1O[C@@H](O[C@H](C)CCC(=O)O)[C@@H](O)C[C@H]1O", "note": "(some centres unmarked) [ascr #9]", "values": [{"measurement": "attraction of males", "setting": "[2]", "value": "attracted"}]}, {"smiles": "CC1O[C@@H](O[C@H](C)CCCCCCC(=O)O)[C@@H](O)C[C@H]1O", "note": "(some centres unmarked) [ascr #10]", "values": [{"measurement": "female attraction", "setting": "P. redivivus females [1]; [6]", "value": "do not respond"}, {"measurement": "attraction of males", "setting": "[2]", "value": "attracted"}, {"measurement": "male attraction", "setting": "P. redivivus males; very high, nonphysiological concentration of 1 mM", "value": "some attraction"}]}]}
